According to the NIST ThermoML archive (doi:10.1016/j.jct.2017.05.001):

Test: wn = mass fraction of the nth substance listed
Settings: Liquid; for mass density: Vibrating tube method

OCCNCCO [diethanolamine] + O
mass density [kg/m3]
Settings | w1 = 0.0993 | w1 = 0.2 | w1 = 0.3002 | w1 = 0.3997
333.15 K, 130000 kPa | 1041.7 | 1050.9 | 1060.6 | 1070.8
333.15 K, 140000 kPa | 1045 | 1054.1 | 1063.7 | 1074
353.15 K, 100 kPa | 981.9 | 992.4 | 1003 | 1013.9
353.15 K, 500 kPa | 982 | 992.5 | 1003.1 | 1014
353.15 K, 1000 kPa | 982.2 | 992.7 | 1003.4 | 1014.2
353.15 K, 2000 kPa | 982.6 | 993.1 | 1003.7 | 1014.5
353.15 K, 5000 kPa | 983.9 | 994.4 | 1005 | 1015.8
353.15 K, 10000 kPa | 986.1 | 996.5 | 1007.1 | 1017.8
353.15 K, 15000 kPa | 988.2 | 998.6 | 1009.1 | 1019.8
353.15 K, 20000 kPa | 990.3 | 1000.6 | 1011.1 | 1021.8
353.15 K, 30000 kPa | 994.4 | 1004.7 | 1015.1 | 1025.7
353.15 K, 40000 kPa | 998.5 | 1008.5 | 1018.9 | 1029.4
353.15 K, 50000 kPa | 1002.4 | 1012.4 | 1022.6 | 1033
353.15 K, 60000 kPa | 1006.2 | 1016.3 | 1026.4 | 1036.7
353.15 K, 70000 kPa | 1010 | 1019.8 | 1029.9 | 1040.2
353.15 K, 80000 kPa | 1013.7 | 1023.4 | 1033.4 | 1043.6
353.15 K, 90000 kPa | 1017.3 | 1026.9 | 1036.8 | 1047
353.15 K, 100000 kPa | 1020.9 | 1030.4 | 1040.1 | 1050.4
353.15 K, 110000 kPa | 1024.4 | 1033.8 | 1043.5 | 1053.6
353.15 K, 120000 kPa | 1027.8 | 1037.1 | 1046.8 | 1056.8
353.15 K, 130000 kPa | 1031.1 | 1040.5 | 1050 | 1060
353.15 K, 140000 kPa | 1034.4 | 1043.6 | 1053.1 | 1063
373.15 K, 100 kPa | 968.1 | 978.3 | 988.7 | 999.2
373.15 K, 500 kPa | 968.3 | 978.6 | 988.9 | 999.4
373.15 K, 1000 kPa | 968.6 | 978.8 | 989.2 | 999.6
373.15 K, 2000 kPa | 969.1 | 979.3 | 989.6 | 1000.1
373.15 K, 5000 kPa | 970.4 | 980.6 | 990.9 | 1001.4
373.15 K, 10000 kPa | 972.7 | 982.8 | 993.2 | 1003.6
373.15 K, 15000 kPa | 974.9 | 985 | 995.3 | 1005.7
373.15 K, 20000 kPa | 977.1 | 987.2 | 997.4 | 1007.8
373.15 K, 30000 kPa | 981.4 | 991.5 | 1001.6 | 1012
373.15 K, 40000 kPa | 985.7 | 995.6 | 1005.7 | 1016
373.15 K, 50000 kPa | 989.7 | 999.5 | 1009.5 | 1019.8
373.15 K, 60000 kPa | 993.6 | 1003.5 | 1013.4 | 1023.6
373.15 K, 70000 kPa | 997.5 | 1007.3 | 1017.2 | 1027.3
373.15 K, 80000 kPa | 1001.4 | 1011.1 | 1020.9 | 1031
373.15 K, 90000 kPa | 1005.1 | 1014.7 | 1024.4 | 1034.5
373.15 K, 100000 kPa | 1008.8 | 1018.3 | 1028 | 1038
373.15 K, 110000 kPa | 1012.4 | 1021.9 | 1031.5 | 1041.4
373.15 K, 120000 kPa | 1015.9 | 1025.3 | 1034.9 | 1044.8
373.15 K, 130000 kPa | 1019.4 | 1028.7 | 1038.2 | 1048.1
373.15 K, 140000 kPa | 1022.7 | 1032 | 1041.5 | 1051.3
393.15 K, 100 kPa | 952.6 | 962.8 | 972.9 | 983.2
393.15 K, 500 kPa | 952.9 | 963.2 | 973.2 | 983.5
393.15 K, 1000 kPa | 953.1 | 963.3 | 973.4 | 983.7
393.15 K, 2000 kPa | 953.6 | 963.8 | 973.9 | 984.2
393.15 K, 5000 kPa | 955.1 | 965.2 | 975.3 | 985.6
393.15 K, 10000 kPa | 957.5 | 967.7 | 977.7 | 988
393.15 K, 15000 kPa | 959.9 | 969.9 | 980 | 990.3
393.15 K, 20000 kPa | 962.3 | 972.3 | 982.4 | 992.7
393.15 K, 30000 kPa | 966.8 | 976.8 | 986.9 | 997.1
393.15 K, 40000 kPa | 971.3 | 981.3 | 991.2 | 1001.4
393.15 K, 50000 kPa | 975.4 | 985.4 | 995.3 | 1005.4
393.15 K, 60000 kPa | 979.7 | 989.6 | 999.4 | 1009.6
393.15 K, 70000 kPa | 984 | 993.8 | 1003.6 | 1013.6
393.15 K, 80000 kPa | 987.9 | 997.6 | 1007.3 | 1017.3
393.15 K, 90000 kPa | 991.7 | 1001.5 | 1011.2 | 1021.2
393.15 K, 100000 kPa | 995.5 | 1005.2 | 1014.8 | 1024.8
393.15 K, 110000 kPa | 999.4 | 1008.9 | 1018.5 | 1028.5
393.15 K, 120000 kPa | 1003.1 | 1012.6 | 1022.1 | 1032
393.15 K, 130000 kPa | 1006.6 | 1016.1 | 1025.5 | 1035.4
393.15 K, 140000 kPa | 1010.1 | 1019.5 | 1029.1 | 1038.9

viscosity [mPa·s]
Settings | w1 = 0.0993 | w1 = 0.1 | w1 = 0.2 | w1 = 0.3 | w1 = 0.3002 | w1 = 0.3997 | w1 = 0.4
353.15 K, 100 kPa, Concentric cylinders viscometry | – | 0.474 | 0.627 | 0.866 | – | – | 1.244
353.15 K, 100 kPa, Falling or rolling sphere viscometry | 0.4595 | – | 0.6088 | – | 0.8528 | 1.226 | –
353.15 K, 5000 kPa, Falling or rolling sphere viscometry | 0.4583 | – | 0.6083 | – | 0.8459 | 1.231 | –
353.15 K, 10000 kPa, Falling or rolling sphere viscometry | 0.4614 | – | 0.6136 | – | 0.8544 | 1.239 | –
353.15 K, 15000 kPa, Falling or rolling sphere viscometry | 0.4631 | – | 0.6167 | – | 0.8578 | 1.247 | –
353.15 K, 20000 kPa, Falling or rolling sphere viscometry | 0.464 | – | 0.6198 | – | 0.8642 | 1.255 | –
353.15 K, 25000 kPa, Falling or rolling sphere viscometry | 0.4671 | – | 0.6239 | – | 0.8704 | 1.264 | –
353.15 K, 30000 kPa, Falling or rolling sphere viscometry | 0.4692 | – | 0.6271 | – | 0.8768 | 1.275 | –
353.15 K, 40000 kPa, Falling or rolling sphere viscometry | 0.4733 | – | 0.6333 | – | 0.8887 | 1.292 | –
353.15 K, 60000 kPa, Falling or rolling sphere viscometry | 0.4815 | – | 0.646 | – | 0.9096 | 1.335 | –
353.15 K, 80000 kPa, Falling or rolling sphere viscometry | 0.4886 | – | 0.6588 | – | 0.9309 | 1.371 | –
353.15 K, 100000 kPa, Falling or rolling sphere viscometry | 0.4971 | – | 0.6731 | – | 0.9514 | 1.409 | –
373.15 K, 5000 kPa, Falling or rolling sphere viscometry | 0.3586 | – | 0.4622 | – | 0.6145 | 0.8545 | –
373.15 K, 10000 kPa, Falling or rolling sphere viscometry | 0.3611 | – | 0.4646 | – | 0.6194 | 0.863 | –
373.15 K, 15000 kPa, Falling or rolling sphere viscometry | 0.3635 | – | 0.467 | – | 0.6247 | 0.8727 | –
373.15 K, 20000 kPa, Falling or rolling sphere viscometry | 0.3652 | – | 0.4698 | – | 0.6304 | 0.8808 | –
373.15 K, 25000 kPa, Falling or rolling sphere viscometry | 0.3672 | – | 0.4729 | – | 0.6353 | 0.889 | –
373.15 K, 30000 kPa, Falling or rolling sphere viscometry | 0.3689 | – | 0.4761 | – | 0.6417 | 0.9 | –
373.15 K, 40000 kPa, Falling or rolling sphere viscometry | 0.3724 | – | 0.482 | – | 0.6515 | 0.9123 | –
373.15 K, 60000 kPa, Falling or rolling sphere viscometry | 0.3807 | – | 0.492 | – | 0.6676 | 0.9445 | –
373.15 K, 80000 kPa, Falling or rolling sphere viscometry | 0.3871 | – | 0.5046 | – | 0.6851 | 0.9763 | –
373.15 K, 100000 kPa, Falling or rolling sphere viscometry | 0.3943 | – | 0.5153 | – | 0.7019 | 1.003 | –
393.15 K, 5000 kPa, Falling or rolling sphere viscometry | 0.2926 | – | 0.3644 | – | 0.4675 | 0.6194 | –
393.15 K, 10000 kPa, Falling or rolling sphere viscometry | 0.2943 | – | 0.3676 | – | 0.4721 | 0.6265 | –
393.15 K, 15000 kPa, Falling or rolling sphere viscometry | 0.2964 | – | 0.37 | – | 0.4778 | 0.6495 | –
393.15 K, 20000 kPa, Falling or rolling sphere viscometry | 0.2989 | – | 0.3724 | – | 0.4809 | 0.6555 | –
393.15 K, 25000 kPa, Falling or rolling sphere viscometry | 0.301 | – | 0.3748 | – | 0.4848 | 0.6626 | –
393.15 K, 30000 kPa, Falling or rolling sphere viscometry | 0.3024 | – | 0.3769 | – | 0.4908 | 0.6682 | –
393.15 K, 40000 kPa, Falling or rolling sphere viscometry | 0.3047 | – | 0.3818 | – | 0.4967 | 0.681 | –
393.15 K, 60000 kPa, Falling or rolling sphere viscometry | 0.3113 | – | 0.3919 | – | 0.5122 | 0.7072 | –
393.15 K, 80000 kPa, Falling or rolling sphere viscometry | 0.3178 | – | 0.4017 | – | 0.527 | 0.7305 | –
393.15 K, 100000 kPa, Falling or rolling sphere viscometry | 0.3233 | – | 0.4114 | – | 0.5417 | 0.7538 | –
